“Also recorded” adds a separate entry of the source.
Tests used:
Type in all cases: cell-based
NF-κB and ISRE = NF-κB and ISRE reporter assays (primary screens), statements in words for both assays; details: with LPS or IFN-α as primary stimulus, compared to compound 1
Method: THP1-Blue™ NF-κB cells were plated in 96-well plates at 10^5 cells/well in 100 μl RPMI supplemented with 10% fetal bovine serum (FBS, Omega Scientific, Inc., Tarzana, Calif.), 100 U/mL penicillin, 100 μg/ml streptomycin (Thermo Fisher Scientific) and Normocin (Invivogen). LPS was prepared in assay medium at a concentration of 20 μg/mL. Tested compounds were dissolved in DMSO at 1 mM as a stock solution and were further diluted in the LPS solution to a final concentration of 10 μM. 100 μL of this solution was then transferred to the plated cells to obtain a final concentration of LPS at 10 μg/mL and compound at 5 μM ([…]). The culture supernatants were harvested after a 20 hour incubation period, SEAP activity in the culture supernatants was determined by a colorimetric assay using QuantiBlue (Invivogen). Plate absorbance was read at 630 nm using a Tecan Infinite M200 plate reader (Männedorf, Switzerland). The SEAP concentration was directly proportional to NF-κB activity, which was 2-point normalized to yield activity of compound 1+LPS as 200% and activity for LPS as 100%.
ISRE-bla THP-1 cells were plated in 96-well plates at 5×10^4 cells/well in 50 μl RPMI supplemented with 10% dialyzed FBS (Atlanta Biologicals, Inc., GA), 0.1 mM nonessential amino acids, 1 mM sodium pyruvate, 100 U/mL penicillin and 100 μg/ml streptomycin. Type I IFN-α (R&D Systems, #11200-2) solution was prepared in assay medium at a concentration of 200 U/mL Tested compounds were dissolved in DMSO at 1 mM and were further diluted in the IFN-α solution to a final concentration of 10 μM. 50 μL of this solution was then transferred to the plated cells to obtain a final concentration of IFN-α at 100 U/mL and compound at 5 μM ([…]), The cells were incubated for 16 hours, after which 20 μL of 6×LiveBLAzer™ FRET B/G Substrate (CCF4-AM) mixture (prepared according to the manufacturer's instructions) was added to each well, Plates were incubated at room temperature in the dark for 3 hours. Fluorescence was measured on a Tecan Infinite M200 plate reader at an excitation wavelength of 405 nm, and emission wavelengths of 465 nm and 535 nm. Background values (cell free wells at the same fluorescence wavelength) were subtracted from the raw fluorescence intensity values and the emission ratios were calculated as the ratio of background subtracted fluorescence intensities at 465 nm to background subtracted fluorescence intensities at 535 nm. The ISRE activity values for these compounds were 2-point normalized to yield activity of compound 1+IFN-α as 200% and activity for IFN-α as 100%.
Measurement of NF-κB Activation Using THP1-Blue NF-κB Cells. THP1-Blue NF-κB cells were plated in 96-well plates at 10^5 cells/well in 100 μL of RPMI supplemented with 10% fetal bovine serum (FBS, Omega Scientific, Inc., Tarzana, Calif.), 100 U/mL penicillin, 100 μg/mL streptomycin (Thermo Fisher Scientific), and Normocin (Invivogen). LPS was prepared in assay medium at a concentration of 20 μg/mL. Tested compounds were dissolved in DMSO at 1 mM as a stock solution and were further diluted in the LPS solution to a final concentration of 10 μM. 100 μL of this solution was then transferred to the plated cells to obtain a final concentration of LPS at 10 μg/mL and compound at 5 μM ([…]). The culture supernatants were harvested after a 20 hours incubation period. SEAP activity in the culture supernatants was determined by a colorimetric assay using QuantiBlue (Invivogen). Plate absorbance was read at 630 nm using a Tecan Infinite M200 plate reader (Mannedorf, Switzerland). The SEAP concentration was directly proportional to NF-κB activity, which was two-point normalized to yield activity of compound 1+LPS as 200% and activity for LPS as 100%.
Measurement of ISRE Activity in ISRE-bla THP-1 Cells. […]

NF-κB = experiment: Measurement of NF-κB activation using THP1-Blue NF-κB cells (SEAP reporter, LPS as primary stimulus); details: for activity at 5 µM / NF-κB % Activation: compound 5 μM + LPS, 20 hour incubation, two point normalized: compound 1 + LPS = 200%, LPS = 100%, mean
Outline: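 THP1-Blue NF-κB cells (10^5/well, RPMI + 10% FBS) were co-treated with LPS 10 μg/mL and compound 5 μM (final, […]) for 20 h. Supernatant SEAP was read by QuantiBlue colorimetry at 630 nm. Two-point normalization set LPS alone to 100% and compound 1+LPS to 200%.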

THP-1 cells = experiment: Cell viability assay (MTT); details: for MTT % Viability: compound 5 μM, 18 hours incubation, normalized to DMSO as 100%, mean
Outline: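 Cells at 10^5/well in RPMI with 10% FBS were exposed to compound at 5 μM final (0.05% DMSO) for 18 h. MTT (0.5 mg/mL) then added for 4-6 h, cells lysed overnight in SDS/HCl, absorbance read at 570 nm against 650 nm reference.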

ISRE = experiment: Measurement of ISRE activity in ISRE-bla THP-1 cells (FRET, IFN-α as primary stimulus); details: for activity at 5 µM / ISRE % Activation: compound 5 μM + IFN-α 100 U/mL, 16 hours, two point normalized: compound 1 + IFN-α = 200%, IFN-α = 100%, mean; for activity at 5 µM: read-out: ISRE % Activation; for ISRE activity (in words): with IFN-α
Outline: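 Cells at 5×10^4/well in RPMI with 10% dialyzed FBS, treated with compound at 5 μM (0.05% DMSO) plus IFN-α at 100 U/mL (final) for 16 h. CCF4-AM substrate added for 3 h at room temperature. Background-subtracted 465/535 nm emission ratio, 2-point normalized: IFN-α alone 100%, compound 1+IFN-α 200%.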

CCOc1ccc(S(=O)(=O)N(CCc2ccccc2)c2cc(OC)c(Cl)cc2OC)cc1 [Compound 47, N-(4-chloro-2,5-dimethoxyphenyl)-4-ethoxy-N-phenethylbenzenesulfonamide]
activity in NF-κB and ISRE assays (in words) (NF-κB and ISRE): potent analogs
activity at 5 µM (NF-κB): 131%
toxicity in MTT assays (in words) (THP-1 cells; 5 μM): somewhat higher toxicity
MTT % Viability (THP-1 cells): 44%
activity at 5 µM (ISRE; Homo sapiens, THP-1): 141%

CCOc1ccc(S(=O)(=O)N(CC(C)C)c2cc(OC)c(Cl)cc2OC)cc1 [Compound 41, N-(4-chloro-2,5-dimethoxyphenyl)-4-ethoxy-N-isobutylbenzenesulfonamide]
activity in NF-κB and ISRE assays (in words) (NF-κB and ISRE): regained the activity in both the NF-κB and ISRE assays
activity at 5 µM (NF-κB): 175%
MTT % Viability (THP-1 cells): 76.7%
activity at 5 µM (ISRE; Homo sapiens, THP-1): 193%

CCOc1ccc(S(=O)(=O)N(CCCO)c2cc(OC)c(Cl)cc2OC)cc1 [Compound 51, N-(4-chloro-2,5-dimethoxyphenyl)-4-ethoxy-N-(3-hydroxypropyl) benzenesulfonamide]
activity in NF-κB and ISRE assays (in words) (NF-κB and ISRE): retained activity in both the assays
NF-κB % Activation (NF-κB): 219%
MTT % Viability (THP-1 cells): 68.5%
ISRE % Activation (ISRE): 178%

COc1cc(NS(=O)(=O)c2ccc(C(N)=O)cc2)c(OC)cc1Cl [Compound 27, 4-(N-(4-chloro-2,5-dimethoxyphenyl)sulfamoyl)benzamide]
activity in NF-κB and ISRE assays (in words) (NF-κB and ISRE): lost activity
activity at 5 µM (NF-κB): 103%
MTT % Viability (THP-1 cells): 91.0%
activity at 5 µM (ISRE; Homo sapiens, THP-1): 94%

CCOc1ccc(S(=O)(=O)Nc2cc(OC)c(Cl)c(OC)c2)cc1 [Compound 8, N-(4-chloro-3,5-dimethoxyphenyl)-4-ethoxybenzenesulfonamide]
activity in NF-κB and ISRE assays (in words) (NF-κB and ISRE): complete loss of activity
activity at 5 µM (NF-κB): 179%
MTT % Viability (THP-1 cells): 71.4%
activity at 5 µM (ISRE; Homo sapiens, THP-1): 218%
ISRE activity (in words) (ISRE): slightly skewed ISRE activity

CCOc1ccc(S(=O)(=O)N(CCCN)c2cc(OC)c(Cl)cc2OC)cc1.Cl [Compound 55, N-(3-aminopropyl)-N-(4-chloro-2,5-dimethoxyphenyl)-4-ethoxybenzenesulfonamide hydrochloride]
activity in NF-κB and ISRE assays (in words) (NF-κB and ISRE; hydrochloride): recovered; also recorded: less potent than compound 1; also recorded: retained activity even though slightly attenuated
activity at 5 µM (NF-κB): 189%
EC50 (NF-κB; dose response in the presence of LPS): 3.32 µM
MTT % Viability (THP-1 cells): 71.0%
activity at 5 µM (ISRE; Homo sapiens, THP-1): 182%
EC50 (ISRE; Homo sapiens, THP-1, dose response in the presence of IFN-α): 3.04 µM

C#CCN(c1cc(OC)c(N=[N+]=[N-])cc1OC)S(=O)(=O)c1ccc(OCC)cc1 [Compound 62, N-(4-azido-2,5-dimethoxyphenyl)-4-ethoxy-N-(prop-2-yn-1-yl) benzenesulfonamide]
activity in NF-κB and ISRE assays (in words) (NF-κB and ISRE): very potent
NF-κB % Activation (NF-κB): 217%
MTT % Viability (THP-1 cells): 73.4%
ISRE % Activation (ISRE): 182%

CCOC(=O)c1ccc(S(=O)(=O)Nc2cc(OC)c(Cl)cc2OC)cc1 [Compound 29, Ethyl 4-(N-(4-chloro-2,5-dimethoxyphenyl)sulfamoyl)benzoate]
activity in NF-κB and ISRE assays (in words) (NF-κB and ISRE): retained partial activity
activity at 5 µM (NF-κB): 189%
MTT % Viability (THP-1 cells): 70.8%
activity at 5 µM (ISRE; Homo sapiens, THP-1): 169%

N-(9-(2-carboxy-44(34(N-(4-chloro-2,5-dimethoxyphenyl)-4-ethoxyphenyl)sulfonamido)propyl)carbamoyl)phenyl)-6-(diethylamino)-3H-xanthen-3-ylidene)-N-ethylethanaminium [Compound 57]
activity in NF-κB and ISRE assays (in words) (NF-κB and ISRE): reduced activity compared to compound 1
NF-κB % Activation (NF-κB): 111%
MTT % Viability (THP-1 cells): 76.9%
ISRE % Activation (ISRE): 123%

CCOc1ccc(S(=O)(=O)N(Cc2ccccc2)c2cc(OC)c(Cl)cc2OC)cc1 [Compound 46, N-benzyl-N-(4-chloro-2,5-dimethoxyphenyl)-4-ethoxybenzenesulfonamide]
activity in NF-κB and ISRE assays (in words) (NF-κB and ISRE): potent analogs
activity at 5 µM (NF-κB): 181%
MTT % Viability (THP-1 cells): 71.7%
activity at 5 µM (ISRE; Homo sapiens, THP-1): 159%

CNC(=O)c1ccc(S(=O)(=O)Nc2cc(OC)c(Cl)cc2OC)cc1 [Compound 30, 4-(N-(4-chloro-2,5-dimethoxyphenyl)sulfamoyl)-N-methylbenzamide]
activity in NF-κB and ISRE assays (in words) (NF-κB and ISRE): completely inactive
activity at 5 µM (NF-κB): 103%
MTT % Viability (THP-1 cells): 77.0%
activity at 5 µM (ISRE; Homo sapiens, THP-1): 105%

CCCOc1ccc(S(=O)(=O)Nc2cc(OC)c(Cl)cc2OC)cc1 [Compound 13, N-(4-chloro-2,5-dimethoxyphenyl)-4-propoxybenzenesulfonamide]
activity in NF-κB and ISRE assays (in words) (NF-κB and ISRE): weakly active; also recorded: retained activity
activity at 5 µM (NF-κB): 149%
MTT % Viability (THP-1 cells): 71.3%
activity at 5 µM (ISRE; Homo sapiens, THP-1): 125%

COc1cc(NS(=O)(=O)c2ccc(O)cc2)c(OC)cc1Cl [Compound 11, N-(4-chloro-2,5-dimethoxyphenyl)-4-hydroxybenzenesulfonamide]
activity in NF-κB and ISRE assays (in words) (NF-κB and ISRE): not tolerated
activity at 5 µM (NF-κB): 98%
MTT % Viability (THP-1 cells): 85.2%
activity at 5 µM (ISRE; Homo sapiens, THP-1): 104%

CCOc1ccc(S(=O)(=O)Nc2cc(OC)c(Br)cc2OC)cc1 [Compound 7, N-(4-bromo-2,5-dimethoxyphenyl)-4-ethoxybenzenesulfonamide]
activity in NF-κB and ISRE assays (in words) (NF-κB and ISRE): retained activity
activity at 5 µM (NF-κB): 176%
MTT % Viability (THP-1 cells): 68.8%
activity at 5 µM (ISRE; Homo sapiens, THP-1): 235%
ISRE activity (in words) (ISRE): slightly skewed ISRE activity

COc1cc(NS(=O)(=O)c2ccc(Oc3ccccc3)cc2)c(OC)cc1Cl [Compound 22, N-(4-chloro-2,5-dimethoxyphenyl)-4-phenoxybenzenesulfonamide]
activity in NF-κB and ISRE assays (in words) (NF-κB and ISRE): inactive
activity at 5 µM (NF-κB): 98%
MTT % Viability (THP-1 cells): 91.3%
activity at 5 µM (ISRE; Homo sapiens, THP-1): 95%

CCOc1ccc(S(=O)(=O)N(CCCNC(=O)OC(C)(C)C)c2cc(OC)c(Cl)cc2OC)cc1 [Compound 52, tert-Butyl (3-((N-(4-Chloro-2,5-dimethoxyphenyl)-4-ethoxyphenyl)sulfonamido)propyl)carbamate]
activity in NF-κB and ISRE assays (in words) (NF-κB and ISRE): reduction in activity
NF-κB % Activation (NF-κB): 134%
MTT % Viability (THP-1 cells): 75.6%
ISRE % Activation (ISRE): 140%
